How the values were obtained:
[1] = Unbound fraction in rat plasma (rapid equilibrium dialysis); assay type: in vitro ADME
Protocol: The plasma or liver microsomal protein bindings were performed using a rapid equilibrium dialysis device and cellulose membranes with a molecular weight cutoff of 8000 (Thermo Scientific, Rockford, IL, USA). The rat and human plasma samples (200 μL) containing SPN at 10 and 50 μM, respectively, were dialyzed against a dialysis buffer, phosphate-buffered saline (PBS, 400 μL). The loaded dialysis plate was covered with sealing tape, placed on an orbital shaker at approximately 200 rpm, and incubated at 37 °C for 4 h. Thereafter, samples (100 μL) from both PBS and plasma chambers were collected and mixed with an equal volume of blank plasma and PBS, respectively. All samples were stored at −80 °C until LC-MS/MS analysis. The unbound fraction of SPN in human (or rat) plasma was calculated by dividing the SPN concentration in PBS by that in plasma.

CYP3A4 [2] = molecular target: T1, CYP3A4 (Homo sapiens, UniProt P08684); assay: Reversible CYP3A4 inhibition, cocktail assay (midazolam 1′-hydroxylase) in human liver microsomes; assay type: biochemical; conditions: midazolam probe
T1 construct: tissue Corning Life Sciences; host or cells: pooled human liver microsomes, 150 donors
Protocol: The inhibitory effects of SPN on CYP1A2, CYP2A6, CYP2B6, CYP2C8, CYP2C9, CYP2C19, CYP2D6, CYP2E1, and CYP3A4 were evaluated in pooled human liver microsomes through the use of specific CYP probe substrates (cocktail assay), as previously described with a slight modification. Concentrations of each CYP probe in Table 1 were used close to their reported Km values.
Briefly, a 90-µL incubation mixture, including pooled human liver microsomes (final concentration 0.1 mg/mL), 50 mM phosphate buffer (pH 7.4), each CYP-probe substrate cocktail set, and SPN (0–50 μM), was pre-incubated for 5 min at 37 °C. SPN was dissolved in methanol and spiked into the incubation mixture to a final concentration of 0.5% methanol. […]
The IC50 values were calculated via nonlinear least-squares regression analysis from logarithmic plots of inhibitor concentration versus percentage of activity remaining after inhibition, using SigmaPlot (ver. 14.0; Systat Software Inc, Chicago, IL, USA). The Ki values were determined from the equations for a single substrate single inhibitor model and the software available in the SigmaPlot Enzyme Kinetics module. Competitive, non-competitive, uncompetitive, or mixed inhibition models were evaluated and ranked according to the best fit based on Akaike Information Criterion (AIC) values. […]

Caco-2 cells = assay: Bi-directional Caco-2 cell permeability; assay type: in vitro ADME
Protocol: Caco-2 cell permeability was assessed to predict the oral absorption of SPN. Cell culture and transport studies were performed as previously described. Briefly, for the bi-directional transport studies, the cells were seeded at a density of 1 × 10^5 cells/well, and the cell medium was replaced until they formed confluent monolayers. On the 25th day, the cell monolayers were washed with pre-warmed HBSS buffer. […] Before the experiment, the integrity of the cell monolayers was evaluated by measuring the transepithelial electrical resistance using a Millicell ohmmeter. After 2 h incubation at 37 °C, samples were withdrawn from both sides, respectively. All samples were stored at −80 °C until LC-MS/MS analysis, and all experiments were performed in triplicate.
The apparent permeability coefficient (Papp) was calculated using the following equation. Papp = (Vr/C0) × (1/A) × ([Drug]/t) where, Vr is the volume of medium in the receiver chamber, C0 is the donor compartment concentration at time zero, A is the area of the cell monolayer, t is the treatment time of the drug, and [Drug] is the drug concentration in the receiver chamber.

CYP3A4 [3] = system: CYP3A4; set-up: method as in PMID 29753067; conditions: cited from earlier work
CYP3A4 [4] = molecular target: T1, CYP3A4; assay: Inhibition of CYP3A4-catalyzed testosterone 6β-hydroxylation; assay type: biochemical; conditions: data not shown
Excerpt: The reversible inhibition of SPN-mediated CYP3A4 activity was less consistent with the published literature. […] They only focused on the in vitro inhibitory potentials of several flavonoids against CYP3A4 activity. To the best of our knowledge, to date, bufalin has not been used as the in vitro probe substrate for the CYP3A4 activity, and the reference material of 5′-hydroxybufalin is not commercially available. Because of the presence of several binding regions within the CYP3A4 active site, multiple probe substrates are often used for in vitro CYP3A4-mediated drug–drug interaction studies, including midazolam, nifedipine, and testosterone. […] Altogether, the in vitro CYP3A4 inhibition by SPN seemed to be substrate-specific.

T1 sequence (P08684 whole entry): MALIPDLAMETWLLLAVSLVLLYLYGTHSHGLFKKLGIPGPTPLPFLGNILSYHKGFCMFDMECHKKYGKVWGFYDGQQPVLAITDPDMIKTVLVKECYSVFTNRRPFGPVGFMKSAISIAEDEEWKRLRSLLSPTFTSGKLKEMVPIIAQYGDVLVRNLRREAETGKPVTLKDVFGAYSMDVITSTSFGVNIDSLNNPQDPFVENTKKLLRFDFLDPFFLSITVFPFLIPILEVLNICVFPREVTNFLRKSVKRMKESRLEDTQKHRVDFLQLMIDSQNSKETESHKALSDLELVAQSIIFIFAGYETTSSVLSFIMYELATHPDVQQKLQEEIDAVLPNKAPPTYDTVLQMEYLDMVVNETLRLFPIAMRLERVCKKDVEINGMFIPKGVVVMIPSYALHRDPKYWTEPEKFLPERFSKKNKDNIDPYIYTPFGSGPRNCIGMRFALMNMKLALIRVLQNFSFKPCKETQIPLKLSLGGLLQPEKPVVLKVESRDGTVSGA

- fraction unbound at 4 h, 10 µM ([1]; 10 μM, 37 °C, 4 h, n = 3, read-out: free fraction in rat plasma): 0.00038 ± 0.000102
- fraction unbound at 4 h, 50 µM ([1]; 50 μM, 37 °C, 4 h, n = 3, read-out: free fraction in rat plasma): 0.000531 ± 0.000149
- fraction unbound at 4 h ([1]; 10 and 50 μM, read-out: plasma protein binding, rat): < 0.001
- residual enzyme activity, CYP3A4 (CYP3A4 [2]; at the highest tested concentration (50 μM)): 53.3 ± 4.00%
- IC50 (CYP3A4 [2]; human liver microsomes 0.1 mg/mL, cocktail assay, n = 3): > 50 µM
- Papp A-to-B as % of propranolol Papp (Caco-2 cells; 10 μM): 0.429%
- Papp A-to-B as % of propranolol Papp (Caco-2 cells; 50 μM): 0.642%
- IC50 (CYP3A4 [4]): 31.5 ± 4.79 µM
Structure (SMILES): CC(C)=CCc1cc([C@@H]2CC(=O)c3ccc(O)c(CC=C(C)C)c3O2)cc(CC=C(C)C)c1O [SPN, (‒)-Sophoranone]
- IC50 (CYP3A4 [3]; range over other CYP3A4 substrates): 5.62 to 38.4 µM
- Ki (CYP3A4 [3]; read-out: Ki, CYP3A4-catalyzed bufalin 5′-hydroxylation): 2.17 ± 0.29 µM

Source: paper PMC7238241, “Lack of Correlation between In Vitro and In Vivo Studies on the Inhibitory Effects of (‒)-Sophoranone on CYP2C9 Is Attributable to Low Oral Absorption and Extensive Plasma Protein Binding of (‒)-Sophoranone” (Pharmaceutics, 2020)
